Experiments:
[1] = molecular target: T1, recombinant human Cox-1 (r-hu Cox1) (Homo sapiens, UniProt P23219); assay: Recombinant human PGHS-1 enzyme assay (RHUCX1); format: biochemical; settings: for inhibition at 100 µM / inhibition at 200 µM: read-out: RHUCX1 % Inh. at Dose
T1 construct: made in house; host or cells: baculovirus/Sf9 insect cells (microsomes)
Summary of the method: (§1)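 PGE2 by EIA (optical density) → % inhibition vs control-group mean → IC50 from linear regression.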

[2] = molecular target: T2, recombinant human Cox-2 (r-hu Cox-2) (Homo sapiens, UniProt P35354); assay: Recombinant human PGHS-2 enzyme assay (RHUCX2); format: biochemical; settings: for IC50: read-out: RHUCX2 IC50 (parenthetical value)
T2 construct: made in house; host or cells: baculovirus/Sf9 insect cells (microsomes)
T2 sequence (P35354 18-604): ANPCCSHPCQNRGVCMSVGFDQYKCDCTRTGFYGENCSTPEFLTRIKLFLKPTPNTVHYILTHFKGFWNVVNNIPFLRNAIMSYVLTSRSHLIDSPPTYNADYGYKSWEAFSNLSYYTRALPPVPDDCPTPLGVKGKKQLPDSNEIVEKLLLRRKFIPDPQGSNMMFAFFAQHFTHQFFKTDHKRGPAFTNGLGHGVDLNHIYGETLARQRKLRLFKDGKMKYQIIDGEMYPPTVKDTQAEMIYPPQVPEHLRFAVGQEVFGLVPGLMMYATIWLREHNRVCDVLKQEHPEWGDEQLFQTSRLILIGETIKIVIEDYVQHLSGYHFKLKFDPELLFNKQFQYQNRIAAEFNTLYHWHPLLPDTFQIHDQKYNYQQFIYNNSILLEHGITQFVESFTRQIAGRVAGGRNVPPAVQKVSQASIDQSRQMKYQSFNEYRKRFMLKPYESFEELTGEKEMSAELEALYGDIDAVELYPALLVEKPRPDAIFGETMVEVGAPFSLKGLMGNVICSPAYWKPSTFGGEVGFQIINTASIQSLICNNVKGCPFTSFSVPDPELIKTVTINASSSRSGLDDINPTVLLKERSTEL
Summary of the method: as §1

[3] = system: prostaglandin biosynthesis in vivo (pleural lavage eicosanoids); assay: Rat carrageenan pleural inflammation (CIP) model; settings: for inhibition in vivo at 10 mg/kg: 4 h, read-out: CIP % Inhib. @ 10 mpk
Procedure: (§2) For oral administration, test compounds were suspended on the day of use in 100% polyethyleneglycol (PEG 400) with a motorized homogenizer equipped with a Teflon-coated pestle (TRI-R Instrument, Jamaica, N.Y.).
(§3) To compare the mean responses of the treatment groups, analysis of variance was applied. Percent inhibition values were determined by comparing the individual treatment mean values to the mean of the control group. Linear regression was used to estimate IC50's/ED50's in appropriate assays.
Pleural inflammation was induced in male adrenalectomized Sprague-Dawley rats following the method of Vinegar et al., Fed. Proc. 1976, 35, 2447-2456. Animals were orally dosed with experimental compounds, 30 minutes prior to the intrapleural injection of 2% lambda carrageenan (Sigma Chemical Co., St. Louis Mo.). Four hours later the animals were euthanized and the pleural cavities lavaged with ice cold saline. The lavage fluid was then added to two volumes of ice cold methanol (final methanol concentration 66%) to lyse cells and precipitate protein. Eicosanoids were determined by EIA as described above.

[4] = system: air pouch prostaglandin biosynthesis (Cox-2); assay: Carrageenan induced air pouch prostaglandin biosynthesis model (CAP); format: in vivo, rat; settings: for inhibition in vivo at 3 mg/kg: 4 h, 3 mpk, rat, read-out: CAP % Inhib. @ 3 mpk; for ED50: Rattus norvegicus
Summary of the method: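 Male Sprague Dawley rats with dorsal air pouches (20 mL air day 0, 10 mL day 3) received 0.2% lambda carrageenan in saline into the pouch on day 7. Compounds dosed at 0.1 to 10 mg/kg 30 min before carrageenan; pouch lavaged 4 h later, prostaglandins measured by EIA. Percent inhibition versus control mean; ED50 by linear regression.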

[5] = system: carrageenan induced paw edema; assay: Carrageenan induced paw edema (CPE) in rats; format: in vivo; settings: 10 mpk oral, rat, 3 hours after carrageenan; read-out: CPE % Inhib. @ 10 mpk
Procedure: as §2, §3
Hingpaw edema was […] in male rats as described by Winter et al., Proc. Soc. Exp. Biol. Med., 1962, 111, 544. Briefly, male Sprague-Dawley rats weighing between 170 and 190 g were administered test compounds orally 1 hour prior to the subplantar injection of 0.1 ml of 1% sodium carrageenan (lambda carrageenan, Sigma Chemical Co., St Louis, Mo.) into the right hindpaw. Right paw volumes (ml) were measured immediately following injection of carrageenan for baseline volume measurements using a Buxco plethysmograph (Buxco Electronics, Inc., Troy, N.Y.). Three hours after the injection of carrageenan, right paws were remeasured and paw edema calculated for each rat by subtracting the zero time reading from the 3 hour reading. Data are reported as mean percent inhibition +/−SEM. Statistical significance of results was analyzed by Dunnetts multiple comparison test where p<0.05 was considered statistically significant.

[6] = molecular target: T3, Human Whole Platelet Cyclooxygenase-1 (Homo sapiens, UniProt P23219); assay: Human Whole Platelet Cyclooxygenase-1 assay (HWPX); format: cell-based; settings: for IC50: read-out: HWPX IC50 (parenthetical value)
T3 construct: from tissue; host or cells: human blood: isolated platelets (A4) or heparinised whole blood (A9)
T3 sequence (P23219 24-599): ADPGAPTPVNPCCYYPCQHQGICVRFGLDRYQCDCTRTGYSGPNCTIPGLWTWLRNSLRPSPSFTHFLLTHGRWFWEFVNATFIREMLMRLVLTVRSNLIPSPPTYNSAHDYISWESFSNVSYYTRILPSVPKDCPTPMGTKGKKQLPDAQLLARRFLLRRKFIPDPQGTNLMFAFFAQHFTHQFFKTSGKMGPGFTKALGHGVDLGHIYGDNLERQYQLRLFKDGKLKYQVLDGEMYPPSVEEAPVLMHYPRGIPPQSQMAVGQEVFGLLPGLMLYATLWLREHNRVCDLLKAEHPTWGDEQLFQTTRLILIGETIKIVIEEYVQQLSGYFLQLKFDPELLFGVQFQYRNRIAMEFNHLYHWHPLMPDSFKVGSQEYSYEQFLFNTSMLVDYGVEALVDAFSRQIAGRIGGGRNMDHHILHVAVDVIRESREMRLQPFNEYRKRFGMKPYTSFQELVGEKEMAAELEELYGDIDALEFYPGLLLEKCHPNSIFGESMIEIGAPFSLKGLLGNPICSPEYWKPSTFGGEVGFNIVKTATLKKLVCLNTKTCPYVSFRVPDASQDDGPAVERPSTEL
Summary of the method: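 Thromboxane production was measured with a commercial kit after stimulation of washed human platelets (ACD-anticoagulated volunteer blood) by 8.8 μM final A23187 for 10 min. Test compounds were added 10 min before stimulus; cold 6 mM EDTA terminated the reaction.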

[7] = molecular target: T4, human amnionic whole cell cyclooxygenase-2 (WISH cells) (Homo sapiens, UniProt P35354); assay: IL-1β induced PGE2 production in WISH cells; format: cell-based; settings: read-out: Wish IC50 (parenthetical value)
T4 construct: endogenous in cells; host or cells: human amnionic WISH cells, induced with IL-1beta
T4 sequence (P35354 18-604): T2 sequence (P35354 18-604)
Summary of the method: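 PGE2 was quantified by enzyme immunoassay (optical density read) against standards made up in the matching medium. WISH cells at 80% confluence, washed and placed in serum-free Neuman-Tytell medium, received 5 ng/ml IL-1β plus test compound or DMSO vehicle (0.01% v/v).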

[8] = 0.1 μM, read-out: RHUCX2 % Inh. at Dose
[9] = 1 μM, read-out: RHUCX2 % Inh. at Dose

T1 sequence (P23219 24-599): as above

melting point [°C] | IC50 [2] [nM] | IC50 [7] [nM] | inhibition at 100 µM ([1]; 100 μM) [%] | IC50 [6] [µM] | Structure (SMILES) | inhibition in vivo at 3 mg/kg [4] [%] | inhibition in vivo at 10 mg/kg [5] [%] | inhibition in vivo at 10 mg/kg ([3]; 10 mpk oral) [%] | also measured
– | – | – | – | – | CS(=O)(=O)c1ccc(-c2cnn(-c3cc(F)cc(F)c3)c(=O)c2-c2ccc(F)cc2)cc1 [Example 180] | – | – | – | RHUCX1 % Inh. at Dose (μM) ([1]; 100 μM): 8 @ 100%; RHUCX2 % Inh. at Dose (μM) ([2]; 0.1 μM): 48 @ 0.1%; RHUCX2 % Inh. at Dose (μM) ([2]; 1 μM): 78 @ 1%; CIP % Inhib. @ 10 mpk ([3]; 10 mpk oral): 34.5%
193 to 195 | 297 | – | 32 | – | NS(=O)(=O)c1ccc(-c2cnn(CC(F)(F)F)c(=O)c2-c2ccc(F)cc2)cc1 [Example 68, 2-(2,2,2-Trifluoroethyl)-4-(4-fluorophenyl)-5-[4-(aminosulfonyl)phenyl]-3(2H)-pyridazinone] | – | 40.3 | 64 | –
210 to 212 | 199 | 20 | 3 | 9.4 | CS(=O)(=O)c1ccc(-c2cnn(-c3cccc(Br)c3)c(=O)c2-c2ccc(F)cc2)cc1 [Example 166, 2-(3-Bromophenyl)-4-(4-fluorophenyl)-5-[4-(methylsulfonyl)phenyl]-3(2H)-pyridazinone] | 59 | – | 40 | –
155 to 158 | 810 | 108 | 33 | 0.5 | CC(C)(O)COc1c(-c2ccc(S(N)(=O)=O)cc2)cnn(-c2ccc(F)cc2)c1=O [Example 478, 2-(4-Fluorophenyl)-4-(2-hydroxy-2-methyl-1-propoxy)-5-[4-(aminosulfonyl)phenyl]-3(2H)-pyridazinone] | 75 | 26 | – | –
109 to 111 | – | – | 11 | – | CC(C)Oc1c(-c2ccc(S(C)(=O)=O)cc2)cnn(Cc2ccccc2)c1=O [Example 74, 2-Benzyl-4-(2-propoxy)-5-[4-(methylsulfonyl)phenyl]-3(2H)-pyridazinone] | – | 18 | 46.5 | –
145 to 146 | 161 | 99 | – | 34 | CC(C)(C)COc1c(-c2ccc(S(C)(=O)=O)cc2)cnn(CC(F)(F)F)c1=O [Example 261] | 79 | 28 | – | inhibition at 200 µM [1]: 0%
165 to 166 | – | – | 0 | – | CS(=O)(=O)c1ccc(-c2cnn(CC(F)(F)F)c(=O)c2-c2ccc(F)c(Cl)c2)cc1 [Example 54, 2-(2,2,2-Trifluoroethyl)-4-(3-chloro-4-fluorophenyl)-5-[4-(methylsulfonyl)phenyl]-3(2H)-pyridazinone] | – | 30 | 31 | inhibition at 0.1 µM [2, 8]: 58%; inhibition at 1 µM [2, 9]: 95%
123 to 124 | 373 | 20 | – | 24.4 | CC(C)(C)COc1c(-c2ccc(S(N)(=O)=O)cc2)cnn(CC(F)(F)F)c1=O [Example 446] | 92 | 44 | – | ED50 [4]: 0.5 mg/kg; inhibition at 200 µM [1]: 0%
101 to 103 | – | – | 2 | 4.1 | CS(=O)(=O)c1ccc(-c2cnn(Cc3ccccc3)c(=O)c2-c2ccc(F)cc2)cc1 [Example 10, 2-Benzyl-4-(4-fluorophenyl)-5-[4-(methylsulfonyl)phenyl]-3(2H)-pyridazinone] | – | – | 44 | –
173 to 175 | – | 26 | 23 | 1.61 | CC(C)(C)COc1c(-c2ccc(S(N)(=O)=O)cc2)cnn(-c2ccc(F)c(F)c2)c1=O [Example 406, 2-(3,4-Difluorophenyl)-4-(2,2-dimethylpropoxy)-5-[4-(aminosulfonyl)phenyl]-3(2H)-pyridazinone] | 66.5 | 23 | – | inhibition at 0.01 µM ([2]; 0.01 μM, read-out: RHUCX2 % Inh. at Dose): 18%; inhibition at 0.1 µM [2, 8]: 64%; inhibition at 1 µM [2, 9]: 100%
– | – | – | – | – | CS(=O)(=O)c1ccc(-c2cnn(CC(F)(F)F)c(=O)c2-c2ccc(Cl)c(F)c2)cc1 [Example 67] | – | – | – | CIP % Inhib. ([3]; 3 mpk oral): 40 @ 3 mpk %
170 to 172 | 129 | 89 | – | 40 | CC(C)COc1c(-c2ccc(S(N)(=O)=O)cc2)cnn(CC(F)(F)F)c1=O [Example 449, 2-(2,2,2-Trifluoroethyl)-4-(2-methylpropoxy)-5-[4-(aminosulfonyl)phenyl]-3(2H)-pyridazinone] | 76 | 23 | – | ED50 [4]: 1.8 mg/kg; inhibition at 200 µM [1]: 5%
180 to 183 | 59 | 20 | 22 | 12.7 | CC(C)CCc1c(-c2ccc(S(N)(=O)=O)cc2)cnn(-c2ccc(F)cc2)c1=O [Example 396, 2-(4-Fluorophenyl)-4-(3-methylbutyl)-5-[4-(aminosulfonyl)phenyl]-3(2H)-pyridazinone] | 85 | 23 | – | –

Structure (SMILES) | melting point [°C] | IC50 [2] [nM] | IC50 [7] [nM] | inhibition at 100 µM ([1]; 100 μM) [%] | IC50 [6] [µM] | inhibition in vivo at 3 mg/kg [4] [%] | inhibition in vivo at 10 mg/kg [5] [%] | inhibition in vivo at 10 mg/kg ([3]; 10 mpk oral) [%] | also measured
CC(C)CCOc1c(-c2ccc(S(N)(=O)=O)cc2)cnn(-c2ccc(F)c(F)c2)c1=O [Example 445, 2-(3,4-Difluorophenyl)-4-(3-methyl-1-butoxy)-5-[4-(aminosulfonyl)phenyl]-3(2H)-pyridazinone] | 149 to 151 | 69 | 25 | – | – | 73 | 15 | – | inhibition at 10 µM ([6]; 10 μM, read-out: HWPX % Inhib. at Dose): 22%; inhibition at 100 µM ([6]; 100 μM, read-out: HWPX % Inhib. at Dose): 100%; IC50 ([1]; read-out: RHUCX1 IC50 (parenthetical value)): 56.6 µM
CC(C)CCOc1c(-c2ccc(S(C)(=O)=O)cc2)cnn(-c2cccc(Cl)c2)c1=O [Example 339, 2-(3-Chlorophenyl)-4-(3-methylbutoxy)-5-[4-(methylsulfonyl)phenyl]-3(2H)-pyridazinone] | 134 to 135 | 88 | 26 | 2 | 0.393 | 90.5 | 43 | – | ED50 [4]: 0.58 mg/kg

From US20020028938A1, “Prostaglandin endoperoxide H synthase biosynthesis inhibitors” (priority 1997, published 2002)
